# Assay results from US10787432B2, “N-[(pyridyloxy)propanyl]benzamides” (Boehringer Ingelheim International GmbH, priority 2016, dated 2020).
# Molecular target: T1, human Orexin 1 receptor (Homo sapiens, UniProt O43613)
# T1 construct: stably expressing the full-length human Orexin 1 receptor; expressed in transfected cells; host or cells: CHO-K1 (CHO-K1/hOX1), co-expressing aequorin
# T1 sequence (O43613 1-425): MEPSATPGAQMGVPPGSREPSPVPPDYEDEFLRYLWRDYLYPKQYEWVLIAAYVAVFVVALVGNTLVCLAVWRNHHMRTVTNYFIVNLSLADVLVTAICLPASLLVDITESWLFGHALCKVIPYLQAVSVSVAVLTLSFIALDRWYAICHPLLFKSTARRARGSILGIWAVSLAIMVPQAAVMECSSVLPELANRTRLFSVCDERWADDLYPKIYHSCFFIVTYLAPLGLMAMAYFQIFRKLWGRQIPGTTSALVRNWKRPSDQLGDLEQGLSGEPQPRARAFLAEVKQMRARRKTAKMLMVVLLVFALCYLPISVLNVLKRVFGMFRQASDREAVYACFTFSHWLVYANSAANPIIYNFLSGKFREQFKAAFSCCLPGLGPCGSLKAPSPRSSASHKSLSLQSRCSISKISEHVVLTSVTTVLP
# Assay: Assay A: In vitro testing of OX1R potency: OX1R IP1 (HTRF, CHO-K1/hOX1 cells, Orexin A as agonist)
# Type: cell-based
# Conditions: OX1R Kb at 0.5 nM Orexin A
row,Structure (SMILES),OX2R Kb/OX1R Kb
1,CCN(C(=O)c1ccccc1-c1ccn(C)n1)[C@@H](C)COc1ccc(C(F)(F)F)cn1 [Example 74],123
2,CCN(C(=O)c1cccc(F)c1-n1nccn1)[C@@H](C)COc1ccc(Br)cn1 [Example 111],123
3,CCN(C(=O)c1ccccc1-n1nccn1)[C@@H](C)COc1ncc(C(F)(F)F)cc1F [Example 47],130
4,CCN(C(=O)c1ccc(C)cc1-c1nnc(C)o1)[C@@H](C)COc1ccc(OC(F)(F)F)cn1 [Example 121],314
5,CCN(C(=O)c1ccc(OC)cc1-n1nccn1)[C@@H](C)COc1ncc(C(F)(F)F)cc1F [Example 131],506
6,CCN(C(=O)c1ccc(C)cc1-c1ncccn1)[C@@H](C)COc1ccc(C(F)(F)F)cn1 [Example 101],79
7,CCN(C(=O)c1ccc(C#N)cc1-n1nccn1)[C@@H](C)COc1ccc(C(F)(F)F)cn1 [Example 103],273
8,CCN(C(=O)c1ccc(F)cc1-n1nccn1)[C@@H](C)COc1ccc(C(F)(F)F)cn1 [Example 1],171
9,CCN(C(=O)c1cc(F)cc(F)c1-n1nccn1)[C@@H](C)COc1ncc(C(F)(F)F)cc1F [Example 54],277

# Same assay, conditions: OX1R Kb at 50 nM Orexin A
row,Structure (SMILES),OX2R Kb/OX1R Kb
1,CCN(C(=O)c1ccccc1-c1ccn(C)n1)[C@@H](C)COc1ccc(C(F)(F)F)cn1 [Example 74],229
2,CCN(C(=O)c1cccc(F)c1-n1nccn1)[C@@H](C)COc1ccc(Br)cn1 [Example 111],213
3,CCN(C(=O)c1ccccc1-n1nccn1)[C@@H](C)COc1ncc(C(F)(F)F)cc1F [Example 47],272
4,CCN(C(=O)c1ccc(C)cc1-c1nnc(C)o1)[C@@H](C)COc1ccc(OC(F)(F)F)cn1 [Example 121],293
5,CCN(C(=O)c1ccc(OC)cc1-n1nccn1)[C@@H](C)COc1ncc(C(F)(F)F)cc1F [Example 131],900
6,CCN(C(=O)c1cc(F)cc(F)c1-n1nccn1)[C@@H](C)COc1ncc(C(F)(F)F)cc1F [Example 54],415

# Same assay, conditions: Orexin A 0.5 nM; read-out: OX1R Kb (Orexin A concentration used)
row,Structure (SMILES),Kb [nM]
1,CCN(C(=O)c1ccccc1-c1ccn(C)n1)[C@@H](C)COc1ccc(C(F)(F)F)cn1 [Example 74],0.39
2,CCN(C(=O)c1cccc(F)c1-n1nccn1)[C@@H](C)COc1ccc(Br)cn1 [Example 111],0.4
3,CCN(C(=O)c1ccccc1-n1nccn1)[C@@H](C)COc1ncc(C(F)(F)F)cc1F [Example 47],0.67
4,CCN(C(=O)c1ccc(C)cc1-c1nnc(C)o1)[C@@H](C)COc1ccc(OC(F)(F)F)cn1 [Example 121],1.4
5,CCN(C(=O)c1ccc(OC)cc1-n1nccn1)[C@@H](C)COc1ncc(C(F)(F)F)cc1F [Example 131],0.89
6,CCN(C(=O)c1ccc(C)cc1-c1ncccn1)[C@@H](C)COc1ccc(C(F)(F)F)cn1 [Example 101],0.38
7,CCN(C(=O)c1ccc(C#N)cc1-n1nccn1)[C@@H](C)COc1ccc(C(F)(F)F)cn1 [Example 103],4.28
8,CCN(C(=O)c1ccc(F)cc1-n1nccn1)[C@@H](C)COc1ccc(C(F)(F)F)cn1 [Example 1],0.34
9,CCN(C(=O)c1cc(F)cc(F)c1-n1nccn1)[C@@H](C)COc1ncc(C(F)(F)F)cc1F [Example 54],0.99

# Same assay, conditions: Orexin A 50 nM; read-out: OX1R Kb (Orexin A concentration used)
row,Structure (SMILES),Kb [nM]
1,CCN(C(=O)c1ccccc1-c1ccn(C)n1)[C@@H](C)COc1ccc(C(F)(F)F)cn1 [Example 74],0.21
2,CCN(C(=O)c1cccc(F)c1-n1nccn1)[C@@H](C)COc1ccc(Br)cn1 [Example 111],0.23
3,CCN(C(=O)c1ccccc1-n1nccn1)[C@@H](C)COc1ncc(C(F)(F)F)cc1F [Example 47],0.32
4,CCN(C(=O)c1ccc(C)cc1-c1nnc(C)o1)[C@@H](C)COc1ccc(OC(F)(F)F)cn1 [Example 121],1.5
5,CCN(C(=O)c1ccc(OC)cc1-n1nccn1)[C@@H](C)COc1ncc(C(F)(F)F)cc1F [Example 131],0.5
6,CCN(C(=O)c1cc(F)cc(F)c1-n1nccn1)[C@@H](C)COc1ncc(C(F)(F)F)cc1F [Example 54],0.66

# Molecular target: T2, human orexin 2 receptor (Homo sapiens, UniProt O43614)
# T2 construct: stably expressing the full-length human orexin 2 receptor; expressed in transfected cells; host or cells: CHO-K1 (CHO-K1/hOX2), co-expressing aequorin
# T2 sequence (O43614 1-444): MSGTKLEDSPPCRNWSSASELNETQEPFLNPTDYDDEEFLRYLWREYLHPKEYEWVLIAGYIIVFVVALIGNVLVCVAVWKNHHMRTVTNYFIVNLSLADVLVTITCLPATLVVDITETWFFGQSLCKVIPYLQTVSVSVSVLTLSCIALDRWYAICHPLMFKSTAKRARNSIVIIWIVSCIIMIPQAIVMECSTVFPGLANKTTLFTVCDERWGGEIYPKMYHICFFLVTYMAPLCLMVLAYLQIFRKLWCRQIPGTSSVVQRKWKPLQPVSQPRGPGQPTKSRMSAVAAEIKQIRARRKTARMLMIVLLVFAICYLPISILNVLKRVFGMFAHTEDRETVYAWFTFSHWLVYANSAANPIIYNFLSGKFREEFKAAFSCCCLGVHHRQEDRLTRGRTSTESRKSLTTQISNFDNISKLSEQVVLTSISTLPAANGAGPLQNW
# Assay: Assay B: In vitro testing of OX2R potency: OX2R IP1 (HTRF, CHO-K1/hOX2 cells, Orexin A as agonist)
# Type: cell-based
# Conditions: Orexin A 0.5 nM
# Description: Activation of the orexin receptors expressed in cell lines results in an increase in intracellular IP3 concentration. IP1, a downstream metabolite of IP3, accumulates in cells following receptor activation and is stable in the presence of LiCl. Using Homogeneous Time-Resolved Fluorescence technology with Lumi4-Tb cryptate (commercially available from Cisbio Bioassay.) and a suitable fluorescence plate reader. […] Chem. Genomics 2009, 3, 22-32. This technique is used to characterize pharmacological modification of the orexin receptors.
# B. In Vitro Testing of OX2R Potency: OX2R IP1
# IP1 measurements are performed in CHO-K1 cells stably expressing the full-length human orexin 2 receptor and the aequorin photoprotein. Cells are cultivated in Ham's nutrient mixture F12 medium with 10% fetal calf serum, in a 37° C., 95% humidity and 5% CO2 incubator. The CHO-K1/hOX2 cell mass is expanded to larger cell numbers. The cells are obtained as frozen cells in cryo-vials and stored until use at −150° C. The viability of the cells after thawing is >90%. In preparation for the assay, 24 hours before the assay, the cells are thawed at 37° C. and immediately diluted with cell culture medium. After centrifugation, the cell pellet is resuspended in medium and then distributed into the assay plates with a density of 5000 cells/25 μL per well. The plates are incubated for one hour at room temperature to reduce edge effects before they are incubated for 24 hours at 37° C./5% CO2. Compounds are prepared by a 8-point serial dilution in DMSO and a final dilution step into assay buffer (HBSS with 20 mM HEPES, 0.1% BSA and 50 mM LiCl, pH 7.4) to ensure a final DMSO concentration of 1% in the assay.
# On the day of the assay, cells in the plate are washed twice with 60 μL assay buffer (20 μL buffer remained in the wells after washing), followed by adding 5 μL per well of compounds diluted in assay buffer. After 15 minutes of incubation at room temperature 5 μL per well of Orexin A peptide (final concentration: 0.5 nM) dissolved in assay buffer is added to the assay plate. The assay plate is incubated for 60 minutes at 37° C. Then 5 μL per well of Anti-IP1-Cryptate Tb solution and 5 μL per well of IP1-d2 dilution are added to all well of the plate and the plate is incubated for a further 60 minutes light protected at room temperature. The emission at 615 nm and 665 nm (Excitation wavelength: 320 nm) are measured using an EnVision reader (PerkinElmer). The ratio between the emission at 665 nm and 615 is calculated by the reader.
# 8-point four parametric non-linear curve fitting and determination of IC50 values and Hill slopes is performed using a regular analysis software e.g. AssayExplorer (Accelrys). In order to establish an agonist concentration independent parameter, Kb values are calculated using the following equation: IC50/((2+(A/EC50)n)^1/n−1) (with A=concentration agonist, EC50=EC50 agonist, n=Hill slope agonist) (see P. Leff, I. G. Dougall, Trends Pharmacol. Sci. 1993, 14(4), 110-112).
# Kb values from Assay A (OX1R) and Assay B (OX2R) can then provide a selectivity ratio which is independent of the agonist (Orexin A) concentration.
row,Structure (SMILES),Kb [nM]
1,CCN(C(=O)c1ccccc1-c1ccn(C)n1)[C@@H](C)COc1ccc(C(F)(F)F)cn1 [Example 74],48
2,CCN(C(=O)c1cccc(F)c1-n1nccn1)[C@@H](C)COc1ccc(Br)cn1 [Example 111],49
3,CCN(C(=O)c1ccccc1-n1nccn1)[C@@H](C)COc1ncc(C(F)(F)F)cc1F [Example 47],87
4,CCN(C(=O)c1ccc(C)cc1-c1nnc(C)o1)[C@@H](C)COc1ccc(OC(F)(F)F)cn1 [Example 121],440
5,CCN(C(=O)c1ccc(OC)cc1-n1nccn1)[C@@H](C)COc1ncc(C(F)(F)F)cc1F [Example 131],450
6,CCN(C(=O)c1ccc(C)cc1-c1ncccn1)[C@@H](C)COc1ccc(C(F)(F)F)cn1 [Example 101],30
7,CCN(C(=O)c1ccc(C#N)cc1-n1nccn1)[C@@H](C)COc1ccc(C(F)(F)F)cn1 [Example 103],1170
8,CCN(C(=O)c1ccc(F)cc1-n1nccn1)[C@@H](C)COc1ccc(C(F)(F)F)cn1 [Example 1],58
9,CCN(C(=O)c1cc(F)cc(F)c1-n1nccn1)[C@@H](C)COc1ncc(C(F)(F)F)cc1F [Example 54],274

# System: not listed separately
# Assay: Assay C: Metabolic stability in human liver microsomes (Human MST)
# Type: in vitro ADME
# Conditions: pooled human liver microsomes, pH 7.6; human liver microsomes 1 mg/mL, compound 1 μM, 37° C., NADPH; read-out: Human MST t1/2
# Procedure: C. Assessment of Metabolic Stability in Human Liver Microsomes (Human MST)
# The metabolic stability of the compounds according to the invention may be investigated as follows:
# The metabolic degradation of the test compound is assayed at 37° C. with pooled human liver microsomes. The final incubation volume of 100 μL per time point contains TRIS buffer pH 7.6 at room temperature (0.1 M), MgCl2 (5 mM), microsomal protein (1 mg/mL) and the test compound at a final concentration of 1 μM. Following a short pre-incubation period at 37° C., the reactions are initiated by addition of beta-nicotinamide adenine dinucleotide phosphate, reduced form (NADPH, 1 mM), and terminated by transferring an aliquot into solvent after different time points. After centrifugation (10000 g, 5 min), an aliquot of the supernatant is assayed by LC-MS/MS for the amount of parent compound. The half-life (t1/2) is determined by the slope of the semi-logarithmic plot of the concentration-time profile.
row,Structure (SMILES),half-life at 1 μM [min]
1,CCN(C(=O)c1ccccc1-c1ccn(C)n1)[C@@H](C)COc1ccc(C(F)(F)F)cn1 [Example 74],14
2,CCN(C(=O)c1cccc(F)c1-n1nccn1)[C@@H](C)COc1ccc(Br)cn1 [Example 111],62
3,CCN(C(=O)c1ccccc1-n1nccn1)[C@@H](C)COc1ncc(C(F)(F)F)cc1F [Example 47],21
4,CCN(C(=O)c1ccc(C)cc1-c1nnc(C)o1)[C@@H](C)COc1ccc(OC(F)(F)F)cn1 [Example 121],15
5,CCN(C(=O)c1ccc(OC)cc1-n1nccn1)[C@@H](C)COc1ncc(C(F)(F)F)cc1F [Example 131],11
6,CCN(C(=O)c1ccc(C)cc1-c1ncccn1)[C@@H](C)COc1ccc(C(F)(F)F)cn1 [Example 101],13
7,CCN(C(=O)c1ccc(C#N)cc1-n1nccn1)[C@@H](C)COc1ccc(C(F)(F)F)cn1 [Example 103],58
8,CCN(C(=O)c1ccc(F)cc1-n1nccn1)[C@@H](C)COc1ccc(C(F)(F)F)cn1 [Example 1],38
9,CCN(C(=O)c1cc(F)cc(F)c1-n1nccn1)[C@@H](C)COc1ncc(C(F)(F)F)cc1F [Example 54],87
